Results: patent publication US12336981B2, “Compounds and compositions for the inhibition of NAMPT” (Valo Health, Inc., priority 2010, dated 2025)
Read-outs that look alike come from different tables or passages of the source.

What was measured:
NAMPT = molecular target: T1, NAMPT (Homo sapiens, UniProt P43490); assay: Biochemical inhibition assay: NAMPT enzymatic reaction, NMN quantified by mass spectrometry; details: read-out: Biochem IC50
T1 construct: His tag; host or cells: E. coli
Method in brief: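 Inhibition of E. coli-expressed His-tagged human NAMPT, measured as NMN formation by mass spectrometry after a 30 min room-temperature reaction containing 1 μM NAM, 100 μM PRPP and 2.5 mM ATP.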

A2780 cells = assay: In-vitro cell proliferation assay (SRB), A2780 cells; format: cell-based; details: Homo sapiens, A2780, 72 h, A2780 cells, 72 hours, read-out: A2780 IC50
Method in brief: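 Viable cells measured by SRB staining after 6% TCA fixation, absorbance 570 nm. Media-only background subtracted; % inhibition derived at two compound concentrations.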

T1 sequence (P43490 whole entry): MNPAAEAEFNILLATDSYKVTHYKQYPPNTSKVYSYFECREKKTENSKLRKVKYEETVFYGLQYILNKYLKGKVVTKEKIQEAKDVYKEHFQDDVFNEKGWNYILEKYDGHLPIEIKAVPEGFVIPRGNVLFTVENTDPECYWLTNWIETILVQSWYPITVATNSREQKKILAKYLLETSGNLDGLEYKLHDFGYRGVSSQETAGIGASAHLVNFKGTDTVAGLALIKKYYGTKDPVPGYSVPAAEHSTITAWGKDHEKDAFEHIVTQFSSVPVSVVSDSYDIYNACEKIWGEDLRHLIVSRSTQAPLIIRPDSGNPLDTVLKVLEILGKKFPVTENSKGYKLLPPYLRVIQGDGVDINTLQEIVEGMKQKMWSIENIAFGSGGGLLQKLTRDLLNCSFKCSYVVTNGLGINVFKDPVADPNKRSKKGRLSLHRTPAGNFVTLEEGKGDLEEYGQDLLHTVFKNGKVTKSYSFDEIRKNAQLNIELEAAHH

Row | Structure (SMILES) | IC50 (NAMPT; NAMPT enzymatic reaction) [nM] | IC50 (A2780 cells; SRB assay) [nM] | IC50 (NAMPT; NAMPT enzymatic assay) [nM] | IC50 (A2780 cells; SRB) [nM]
1 | CC(C)c1cccc(S(=O)(=O)c2ccc(CNC(=O)c3cc4cnccc4[nH]3)cc2)c1 [N-[(4-{[3-(propan-2-yl)benzene]sulfonyl}phenyl)methyl]-1H-pyrrolo[3,2-c]pyridine-2-carboxamide] | 6 | 4 |  | 
2 | CC(C)c1cccc(S(=O)(=O)c2ccc(CNC(=O)c3ccc4nccn4c3)cc2)c1 [N-[(4-{[3-(propan-2-yl)benzene]sulfonyl}phenyl)methyl]imidazo[1,2-a]pyridine-6-carboxamide] |  |  | 12.4 | 3.49
3 | CC(C)c1cccc(S(=O)(=O)c2ccc(CNC(=O)c3cc4ccncc4s3)cc2)c1 [N-[(4-{[3-(propan-2-yl)benzene]sulfonyl}phenyl)methyl]thieno[2,3-c]pyridine-2-carboxamide] | 9 | 2.6 |  | 
4 | O=C(NCc1ccc(S(=O)(=O)c2cccc(OC(F)(F)F)c2)cc1)c1cc2cnccc2[nH]1 [N-[(4-{[3-(trifluoromethoxy)benzene]sulfonyl}phenyl)methyl]-1H-pyrrolo[3,2-c]pyridine-2-carboxamide] | 5 | 3 |  | 
5 | O=C(NCc1ccc(S(=O)(=O)c2cccc(OC(F)(F)F)c2)cc1)c1ccc2nccn2c1 [N-[(4-{[3-(trifluoromethoxy)benzene]sulfonyl}phenyl)methyl]imidazo[1,2-a]pyridine-6-carboxamide] |  |  | 8.73 | 3.18
6 | O=C(NCc1ccc(S(=O)(=O)c2cccc(OC(F)(F)F)c2)cc1)c1cc2ccncc2s1 [N-[(4-{[3-(trifluoromethoxy)benzene]sulfonyl}phenyl)methyl]thieno[2,3-c]pyridine-2-carboxamide] | 2 | 2.4 |  | 
7 | O=C(NCc1ccc(S(=O)(=O)c2cccc(C(F)(F)F)c2)cc1)c1cc2cnccc2[nH]1 [N-[(4-{[3-(trifluoromethyl)benzene]sulfonyl}phenyl)methyl]-1H-pyrrolo[3,2-c]pyridine-2-carboxamide] | 9 | 3 |  | 
8 | O=C(NCc1ccc(S(=O)(=O)c2cccc(C(F)(F)F)c2)cc1)c1ccc2nccn2c1 [N-[(4-{[3-(trifluoromethyl)benzene]sulfonyl}phenyl)methyl]imidazo[1,2-a]pyridine-6-carboxamide] |  |  | 8.42 | 1.72
9 | O=C(NCc1ccc(S(=O)(=O)c2cccc(C(F)(F)F)c2)cc1)c1cc2ccncc2s1 [N-[(4-{[3-(trifluoromethyl)benzene]sulfonyl}phenyl)methyl]thieno[2,3-c]pyridine-2-carboxamide] | 3 | 1 |  | 
10 | O=C(NCc1ccc(S(=O)(=O)c2ccc(C(F)(F)F)c(Cl)c2)cc1)c1cnc2[nH]ncc2c1 [N-[(4-{[3-chloro-4-(trifluoromethyl)benzene]sulfonyl}phenyl)methyl]-1H-pyrazolo[3,4-b]pyridine-5-carboxamide] |  |  | 84.3 | 26.4
11 | CCN(CC)C(=O)c1cc(Cl)cc(S(=O)(=O)c2ccc(CNC(=O)c3cc4ccncc4o3)cc2)c1 [N-[(4-{[3-chloro-5-(diethylcarbamoyl)benzene]sulfonyl}phenyl)methyl]furo[2,3-c]pyridine-2-carboxamide] |  |  | 8.4 | 1.7
12 | O=C(NCc1ccc(S(=O)(=O)c2cc(Cl)cc(C(F)(F)F)c2)cc1)c1cnc2[nH]ncc2c1 [N-[(4-{[3-chloro-5-(trifluoromethyl)benzene]sulfonyl}phenyl)methyl]-1H-pyrazolo[3,4-b]pyridine-5-carboxamide] |  |  | 7.8 | 2.73
13 | O=C(NCc1ccc(S(=O)(=O)c2cc(Cl)cc(C(F)(F)F)c2)cc1)c1cc2cnccc2[nH]1 [N-[(4-{[3-chloro-5-(trifluoromethyl)benzene]sulfonyl}phenyl)methyl]-1H-pyrrolo[3,2-c]pyridine-2-carboxamide] |  |  | 19.9 | 2.7
14 | O=C(NCc1ccc(S(=O)(=O)c2ccc(-n3cccn3)c(F)c2)cc1)c1cc2cnccc2[nH]1 [N-[(4-{[3-fluoro-4-(1H-pyrazol-1-yl)benzene]sulfonyl}phenyl)methyl]-1H-pyrrolo[3,2-c]pyridine-2-carboxamide] | 11 | 4 |  | 
15 | O=C(NCc1ccc(S(=O)(=O)c2ccc(-n3cccn3)c(F)c2)cc1)c1ccc2nccn2c1 [N-[(4-{[3-fluoro-4-(1H-pyrazol-1-yl)benzene]sulfonyl}phenyl)methyl]imidazo[1,2-a]pyridine-6-carboxamide] |  |  | 5.37 | 3.41
16 | O=C(NCc1ccc(S(=O)(=O)c2ccc(OCC(F)(F)F)c(F)c2)cc1)c1cnc2[nH]ncc2c1 [N-[(4-{[3-fluoro-4-(2,2,2-trifluoroethoxy)benzene]sulfonyl}phenyl)methyl]-1H-pyrazolo[3,4-b]pyridine-5-carboxamide] |  |  | 10.3 | 22.3
17 | O=C(NCc1ccc(S(=O)(=O)c2ccc(OC(F)(F)F)c(F)c2)cc1)c1cnc2[nH]ncc2c1 [N-[(4-{[3-fluoro-4-(trifluoromethoxy)benzene]sulfonyl}phenyl)methyl]-1H-pyrazolo[3,4-b]pyridine-5-carboxamide] |  |  | 17.4 | 13.7
18 | O=C(NCc1ccc(S(=O)(=O)c2ccc(OC(F)(F)F)c(F)c2)cc1)c1cc2cnccc2[nH]1 [N-[(4-{[3-fluoro-4-(trifluoromethoxy)benzene]sulfonyl}phenyl)methyl]-1H-pyrrolo[3,2-c]pyridine-2-carboxamide] |  |  | 26.2 | 20.5
19 | O=C(NCc1ccc(S(=O)(=O)c2ccc(C(F)(F)F)c(F)c2)cc1)c1cc2cnccc2[nH]1 [N-[(4-{[3-fluoro-4-(trifluoromethyl)benzene]sulfonyl}phenyl)methyl]-1H-pyrrolo[3,2-c]pyridine-2-carboxamide] |  |  | 10.3 | 13
20 | O=C(NCc1ccc(S(=O)(=O)c2cc(F)cc(OCC(F)(F)F)c2)cc1)c1cnc2[nH]ncc2c1 [N-[(4-{[3-fluoro-5-(2,2,2-trifluoroethoxy)benzene]sulfonyl}phenyl)methyl]-1H-pyrazolo[3,4-b]pyridine-5-carboxamide] |  |  | 8 | 4.82
21 | O=C(NCc1ccc(S(=O)(=O)c2cc(F)cc(OCC(F)(F)F)c2)cc1)c1cc2ccncc2o1 [N-[(4-{[3-fluoro-5-(2,2,2-trifluoroethoxy)benzene]sulfonyl}phenyl)methyl]furo[2,3-c]pyridine-2-carboxamide] |  |  | 7.4 | 6.1
22 | O=C(NCc1ccc(S(=O)(=O)c2cc(F)cc(OCC(F)(F)F)c2)cc1)c1cc2ccncc2s1 [N-[(4-{[3-fluoro-5-(2,2,2-trifluoroethoxy)benzene]sulfonyl}phenyl)methyl]thieno[2,3-c]pyridine-2-carboxamide] |  |  | 2.9 | 3.5
23 | CC(C)COc1cc(F)cc(S(=O)(=O)c2ccc(CNC(=O)c3cnc4[nH]ncc4c3)cc2)c1 [N-[(4-{[3-fluoro-5-(2-methylpropoxy)benzene]sulfonyl}phenyl)methyl]-1H-pyrazolo[3,4-b]pyridine-5-carboxamide] |  |  | 11.2 | 9.49
24 | CC(C)COc1cc(F)cc(S(=O)(=O)c2ccc(CNC(=O)c3cc4ccncc4o3)cc2)c1 [N-[(4-{[3-fluoro-5-(2-methylpropoxy)benzene]sulfonyl}phenyl)methyl]furo[2,3-c]pyridine-2-carboxamide] |  |  | 10.3 | 12.9
